Several values for one entry are separate records, joined by “and”; a condition that tells them apart may be missing. Equal entries are not always repeated.
Tests used:
histone deacetylase [1] = test: Histone deacetylase activity in whole HT-29 cells; format: cell-based; conditions: pure substance; for total HDAC activity inhibition: whole cells or lysate not distinguished
Method: The cell line HT-29 was used because histone deacetylase is present.
Cell free supernatants of stationary phase bacterial cultures were isolated by centrifugation and filtering in a 0.22 uM filter. HT-29 cells were used 3 days' post confluence and stepped down in 1 mL DTS 24 hours prior to commencement of the experiment. The HT-29 cells were challenged with 10% cell free supernatant diluted in DTS and was is left to incubate for 48 hours. […] extraction kit and samples were snap frozen prior to HDAC activity measurement. HDAC activity was assessed fluorometrically using the Sigma Aldrich (UK) kit.
(§1) To investigate which metabolites were responsible for the strain-induced HDAC inhibition, different concentrations of hexanoic acid, valeric acid and sodium butyrate were measured for their HDAC inhibition on whole HT-29 cells and on HT-29 cell lysate.

C57BL/6J mice = test: DSS-induced colitis mouse model, ileum histology; format: in vivo; conditions: for COLITIS SCORING mean ± SEM: group mean, n = 9, 3% DSS; for COLITIS SCORING mean ± SEM / COLITIS SCORING (sum) / Depletion of goblet cells score / Edema score / Erosion (epithelial cell damage) score / Leucocytes Infiltration score: Day 7; for COLITIS SCORING (sum) / Depletion of goblet cells score / Edema score / Erosion (epithelial cell damage) score / Leucocytes Infiltration score: ileum histology, individual mouse, 3% DSS
Method: The objective of this study was to determine the prophylactic efficacy of MRX029 in a DSS-induced colitis mouse model, upon repeated oral administration.
Tacrolimus was dosed at 1 mg/kg/day
Valproic acid was dosed at 200 mg/kg/day
PBS, YCFA and bacterial cultures were dosed at 200 μL/day
PBS, YCFA and live bacteria were be daily administered per os (PO) under a fixed volume of 200 μL/mouse
Tacrolimus will be daily administered subcutaneously (SC) under a volume of 10 mL/kg Valproic acid will be daily administered per os (PO) under a volume of 10 mL/kg
Each of sixty three, 6 week old healthy male C57BL/6J mice were obtained from Charles River (France) and individually identified and labelled with a specific code. Each treatment group (9 animals/group) were housed in three different cages.
Animals were dosed by extracting the dosing aliquot from the Hungate tube using a syringe and a 0.8×40 mm needle injected through the septum. The Hungate tube was mixed by inversion before the dosing aliquot was extracted. The first 50-100 μL through the gavage needle and each mouse was dose with 200 μL of culture by oral gavage
Days −7 to Day −1: Treatment with bacteria and reference substances according the treatment table above • Once daily oral administration of PBS, YCF A or Bacteria—200 μL per mouse • Once daily oral administration of Valproic acid at 200 mg/kg/day under a volume of 10 mL/kg
From Day O to Day+7: DSS administration • Administration of 3% DSS in the drinking water
From Day O to Day+6: Treatment with bacteria and reference substances • Once daily oral administration of PBS, YCFA or Bacteria—200 μL per mouse • Once daily oral administration of Valproic acid-200 mg/kg in sterile distilled water—10 mL/kg • Once daily SC administration of Tacrolimus—1 mg/kg in sterile 1% Tween80, 0.9% NaCl −10 mL/kg
Day +7: Sacrifice of all groups and tissue harvesting • Euthanasia of animals was performed under gas anesthesia (lsoflurane) followed by exsanguination and cervical dislocation. Euthanasia methods used are those recommended for mice and rats by European directive 20 I 0/63/CE and the procedure describing euthanasia methods was approved by IACUC. • Laparotomy and ileum harvesting, just upstream of the caecum (from 0.5 cm and on)—all tissue harvested from exactly the same area between all mice: • 1.5 cm swiss-rolled ileum was harvested for histology, the closest to the caecum
Ileum Swiss-rolls specimens were embedded in paraffin and sections of 5 μm thickness were cut and mounted on SuperFrost Ultra plus glass slides. HP (Hematoxylin-Phloxin) staining & AB-PAS (Alcian Blue-Periodic Acid Schiff) staining were performed to visualize histomorphologic changes. A scoring based on edema, erosion, loss of crypts/goblet cells and infiltrates was established on each animal, using the criteria in the following table: […]

histone deacetylase [2] = test: HDAC inhibition on HT-29 cell lysate; format: biochemical; conditions: pure substance, different concentrations
Method: as §1

IL-6 = IL-6 secretion by U373 glioblastoma astrocytoma cells (ELISA); format: cell-based, human; conditions: for LPS-induced secretion of IL-6 in U373 cells, SCFAs: LPS pre-treatment 1 h, increasing concentrations of pure fatty acid
Method: MG U373 is a human glioblastoma astrocytoma derived from a malignant tumour and were purchased from Sigma-Aldrich (cat n. 08061901-1VL). MG U373 human glioblastoma astrocytoma cells were grown in MEM (Sigma Aldrich, cat n. M-2279) supplemented with 10% FBS, 1% Pen Strep, 4 mM L-Glut, 1×MEM Non essential Amino Acid solution and 1× Sodium Pyruvate.
Once grown the MG U373 cells were plated on 24-well plate at 100,000 cells/well. The cells were treated with LPS (1 ug/mL) alone or with 10% of bacteria supernatant from MRx0029 for 24 h. A control was also performed where the cells were incubated in untreated media. Afterwards the cell free supernatants were collected, centrifuged at 10,000 g for 3 min at 4° C. IL-6 was measured using the Human IL-6 ELISA Kit from Peprotech (cat n.#900-K16) according to manufacturer instructions.
Human glioblastoma astrocytoma cell line (U373), were maintained in 25 ml MEME 4.5 g/L D-glucose supplemented with 10% heat-inactivated FBS, 4 mM L-Glutamine, 100 U/ml penicillin, 100 μg/ml streptomycin and 5 μg/ml plasmocin, 1% Non-Essential Amino Acids, 1% Sodium Pyruvate (referred to as full growth media).
Cells were plated in 24-well plates at a density of 100,000 cells/well in 1 ml of full growth media and left to rest at 37° C./5% CO2 for 72 h. On the day of the treatment, the media was removed from each well, cells were rinsed with 0.5 ml wash media (serum free MEME), 0.9 ml stimulation media (MEME media containing 2% FBS) containing 1 μg/ml LPS was added to the appropriate wells and incubated at 37° C. and 5% CO2. After 1 h pre-incubation, cells were removed from CO2 incubator and treated with 100 μl bacteria supernatant. YCFA+ media was used as control. […]
Secretion of IL-6 was analysed using hIL-6 Standard ELISA Kits, according to the manufacturer's protocol in the cell-free supernatants from U373 cells treated as described above. Samples were measured at 405 nm with correction wavelength set at 655 nm on a microplate reader (iMark, Bio-Rad). Raw data were plotted and analysed using GraphPad Prism 7 software. […]

Row | Structure (SMILES) | total HDAC activity inhibition (histone deacetylase [1]) | COLITIS SCORING mean ± SEM (C57BL/6J mice) | COLITIS SCORING (sum) (C57BL/6J mice) | Depletion of goblet cells score (C57BL/6J mice) | Edema score (C57BL/6J mice) | Erosion (epithelial cell damage) score (C57BL/6J mice) | Leucocytes Infiltration score (C57BL/6J mice) | LPS-induced secretion of IL-6 in U373 cells, SCFAs (IL-6) | other results
1 | CCCCC(=O)O [valeric acid] | significant HDAC inhibition |  |  |  |  |  |  |  | total HDAC activity inhibition (histone deacetylase [1]; listed as Valeric acid): inhibited total HDAC activity
2 | C=CC[C@@H]1/C=C(\C)C[C@H](C)C[C@H](OC)[C@H]2O[C@@](O)(C(=O)C(=O)N3CCCC[C@H]3C(=O)O[C@H](/C(C)=C/[C@@H]3CC[C@@H](O)[C@H](OC)C3)[C@H](C)[C@@H](O)CC1=O)[C@H](C)C[C@@H]2OC [Tacrolimus] |  | 0.44 | 0 (6×) and 2 and 1 (2×) | 0 | 0 | 0 | 0 (6×) and 2 and 1 (2×) |  | leukocyte infiltration in the ileum, group result (C57BL/6J mice; DSS animals versus vehicle DSS groups): reduced leukocyte infiltration comparable to controls
3 | CCCC(=O)[O-].[Na+] [sodium butyrate] | significant HDAC inhibition |  |  |  |  |  |  | inhibited LPS-induced secretion of IL-6 in U373 cells in a concentration-dependent manner | HDAC inhibition on whole HT-29 cells (histone deacetylase [1]; different concentrations): significant (P<0.05) inhibition of HDAC activity; HDAC inhibition on HT-29 cell lysate (histone deacetylase [2]): significant (P<0.05) inhibition of HDAC activity; basal IL-6 secretion in U373 cells (IL-6; absence of LPS): decreased the basal level of IL-6
4 | CCCCCC(=O)O [hexanoic acid] | did show significant inhibitory activity |  |  |  |  |  |  | did not inhibit IL-6 secretion | 
5 | CCCC(CCC)C(=O)O [Valproic acid, Valproic Acid] |  | 0.67 | 2 (2×) and 1 (2×) and 0 (5×) | 0 | 0 | 0 | 2 (2×) and 1 (2×) and 0 (5×) |  | 
